Results reported in ChEMBL document CHEMBL5727757, “Methods, compositions, and uses of novel Fyn kinase inhibitors” (2020).
pIC50: −log10 of the molar value.

Molecular target: Tyrosine-protein kinase Fyn (Homo sapiens, UniProt P06241)
Experiment: ADP-Glo Kinase Assay: The assay procedure determines the IC50 of each potential FYN kinase inhibitor by measuring the enzyme catalyzed ATP-dependent phosphorylation of the FYN substrate peptide. The ADP-Glo™ Kinase Assay is specifically designed to quantify kinase activity by measuring the ADP produced in the reaction The reaction buffer comprises 40 mM Tris.HCl (pH 7.5), 20 mM MgCl2, 0.1 mg/ml BSA and 5 microM DTT. Individual compounds within the chemical library were dissolved in DMSO at known concentrations. Briefly, 2.5 microliters of reaction buffer containing 3 picograms of FYN kinase and serial dilutions of each potential FYN kinase inhibitor (9 3-fold dilutions of a 10 micromolar top sample) are placed into each well of a 384 well microtiter plate and incubated at room temperature for 30 minutes. An additional 2.5 microliters of reaction buffer containing 100 picograms of the FYN substrate and 12.5 picomoles of ATP are then added to each well and the reaction carried out for 90 minutes at room temperature.

Tyrosine-protein kinase Fyn, sequence (P06241 whole entry): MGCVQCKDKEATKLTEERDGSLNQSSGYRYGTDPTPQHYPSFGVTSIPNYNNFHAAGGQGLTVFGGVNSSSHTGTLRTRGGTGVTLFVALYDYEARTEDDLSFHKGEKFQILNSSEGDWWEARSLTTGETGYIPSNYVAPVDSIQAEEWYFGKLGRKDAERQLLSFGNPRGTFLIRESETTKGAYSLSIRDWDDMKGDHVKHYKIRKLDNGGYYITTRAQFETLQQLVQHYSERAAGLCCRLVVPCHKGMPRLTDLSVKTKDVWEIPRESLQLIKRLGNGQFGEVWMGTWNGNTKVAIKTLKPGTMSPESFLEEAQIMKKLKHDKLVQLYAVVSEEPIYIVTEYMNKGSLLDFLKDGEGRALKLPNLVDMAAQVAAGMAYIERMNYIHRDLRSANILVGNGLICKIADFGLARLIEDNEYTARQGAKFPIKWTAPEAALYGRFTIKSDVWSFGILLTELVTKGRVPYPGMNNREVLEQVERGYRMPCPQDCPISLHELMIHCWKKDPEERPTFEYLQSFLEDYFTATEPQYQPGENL

| pIC50 | Structure (SMILES) |
| --- | --- |
| 8.17 | COc1cc2ncnc3c2cc1OCCCCCN(C(=O)OCc1ccccc1)Cc1ccc2c(c1N3)OCO2 |
| 8.10 | COc1ccc2c(c1)-c1nc(Nc3cc(C)c(OCCN(C)C)c(C)c3)ncc1CC2 |
| 6.48 | COc1cc(-c2nn([C@H]3CC[C@H](N4CCN(C)CC4)CC3)c3ncnc(N)c23)ccc1NC(=O)c1cc2ccccc2n1C |
| 8.10 | COc1ccc2c(c1)-c1nc(Nc3ccc(CCCN4CCCC4)c(OC)c3)ncc1CC2(C)C |
